Test results taken from patent US10227344B2, “CK2 inhibitors, compositions and methods thereof” (Polaris Pharmaceuticals, Inc., priority 2016, dated 2019).

Tests used:
Format in all cases: cell-based
[1] = tested on: LnCap; experiment: Cancer cell panel, cell viability (resazurin): Prostate, LnCap; settings: 72 hours, labelled drug combined with Example 3
Description: (§1) Cells were plated in 96-well plates and treated for 72 hours with a serially diluted CK2 inhibitor or anti-cancer drug or their combination. The suspension cell lines were treated right after plating, while the adherent cells were allowed to attach overnight prior to the start of the treatment.
(§2) Cell viability was determined by adding resazurin to cell cultures and measuring fluorescence with a plate reader. Relative cell viability was calculated by dividing the cell viability signal from a test sample by that of a non-treated control. […] Bliss Independence and Highest Single Agent models were used to determine if there is synergy, additivity or antagonism between the CK2 inhibitor and an anti-cancer drug.

[2] = tested on: SKOV-3; experiment: Cancer cell panel, cell viability (resazurin): Ovarian, SKOV-3; settings: SKOV-3 (Ovarian), 72 hours; labelled drug combined with Example 3
Description: as §1, §2

[3] = tested on: Caov-3; experiment: Cancer cell panel, cell viability (resazurin): Ovarian, Caov-3; settings: Caov-3 (Ovarian), 72 hours; labelled drug combined with Example 3
[4] = tested on: BxPC3; experiment: Cancer cell panel, cell viability (resazurin): Pancreatic, BxPC3; settings: 72 hours, labelled drug combined with Example 3
[5] = tested on: HCT116; experiment: Cancer cell panel, cell viability (resazurin): Colon, HCT116; settings: 72 hours, labelled drug combined with Example 3
[6] = tested on: Colo205; experiment: Cancer cell panel, cell viability (resazurin): Colon, Colo205; settings: 72 hours, labelled drug combined with Example 3
[7] = tested on: LoVo; experiment: Cancer cell panel, cell viability (resazurin): Colon, LoVo; settings: 72 hours, labelled drug combined with Example 3
[8] = tested on: DLD-1; experiment: Cancer cell panel, cell viability (resazurin): Colon, DLD-1; settings: DLD-1 (Colon), 72 hours; labelled drug combined with Example 3
Description: as §1, §2

[9] = tested on: H1299; experiment: Cancer cell panel, cell viability (resazurin): NSCLC, H1299; settings: 72 hours, labelled drug combined with Example 3
[10] = tested on: A549; experiment: Cancer cell panel, cell viability (resazurin): NSCLC, A549; settings: 72 hours, labelled drug combined with Example 3
[11] = tested on: H460; experiment: Cancer cell panel, cell viability (resazurin): NSCLC, H460; settings: 72 hours, labelled drug combined with Example 3
Description: as §1, §2

[12] = tested on: H1975; experiment: Cancer cell panel, cell viability (resazurin): NSCLC, H1975; settings: 72 hours, labelled drug combined with Example 3
[13] = tested on: H23; experiment: Cancer cell panel, cell viability (resazurin): NSCLC, H23; settings: 72 hours, labelled drug combined with Example 3
[14] = tested on: MDA-MB-157; experiment: Cancer cell panel, cell viability (resazurin): Breast, MDA-MB-157; settings: MDA-MB-157 (Breast), 72 hours; labelled drug combined with Example 3
[15] = tested on: BT-474; experiment: Cancer cell panel, cell viability (resazurin): Breast, BT-474; settings: BT-474 (Breast), 72 hours; labelled drug combined with Example 3
Description: as §1, §2

[16] = tested on: ZR-75-1; experiment: Cancer cell panel, cell viability (resazurin): Breast, ZR-75-1; settings: ZR-75-1 (Breast), 72 hours; labelled drug combined with Example 3
Description: as §1, §2

[17] = tested on: 786-O; experiment: Cancer cell panel, cell viability (resazurin): Renal, 786-O; settings: 786-O (Renal), 72 hours; labelled drug combined with Example 3
[18] = tested on: A375; experiment: Cancer cell panel, cell viability (resazurin): Melanoma, A375; settings: 72 hours, labelled drug combined with Example 3
Description: as §1, §2

[19] = tested on: SK-MEL-3; experiment: Cancer cell panel, cell viability (resazurin): Melanoma, SK-MEL-3; settings: SK-MEL-3 (Melanoma), 72 hours; labelled drug combined with Example 3
Description: as §1, §2

[20] = tested on: SK-MEL-24; experiment: Cancer cell panel, cell viability (resazurin): Melanoma, SK-MEL-24; settings: SK-MEL-24 (Melanoma), 72 hours; labelled drug combined with Example 3
Description: as §1, §2

[21] = tested on: WM-115; experiment: Cancer cell panel, cell viability (resazurin): Melanoma, WM-115; settings: WM-115 (Melanoma), 72 hours; labelled drug combined with Example 3
Description: as §1, §2

[22] = tested on: MeWO; experiment: Cancer cell panel, cell viability (resazurin): Melanoma, MeWO; settings: 72 hours, labelled drug combined with Example 3
[23] = tested on: U266; experiment: Cancer cell panel, cell viability (resazurin): multiple myeloma, U266; settings: 72 hours, labelled drug combined with Example 3
[24] = tested on: RPMI8226; experiment: Cancer cell panel, cell viability (resazurin): multiple myeloma, RPMI8226; settings: 72 hours, labelled drug combined with Example 3
[25] = tested on: Ramos; experiment: Cancer cell panel, cell viability (resazurin): Burkitt's Lymphoma, Ramos; settings: 72 hours, labelled drug combined with Example 3
Description: as §1, §2

[26] = tested on: Raji; experiment: Cancer cell panel, cell viability (resazurin): Burkitt's Lymphoma, Raji; settings: 72 hours, labelled drug combined with Example 3
[27] = tested on: Daudi; experiment: Cancer cell panel, cell viability (resazurin): Burkitt's Lymphoma, Daudi; settings: 72 hours, labelled drug combined with Example 3
[28] = tested on: NAMALWA; experiment: Cancer cell panel, cell viability (resazurin): Burkitt's Lymphoma, NAMALWA; settings: 72 hours, labelled drug combined with Example 3
Description: as §1, §2

[29] = tested on: K562; experiment: Cancer cell panel, cell viability (resazurin): Leukemia, K562; settings: 72 hours, labelled drug combined with Example 3
Description: as §1, §2

[30] = tested on: HL60; experiment: Cancer cell panel, cell viability (resazurin): Leukemia, HL60; settings: 72 hours, labelled drug combined with Example 3
Description: as §1, §2

[31] = tested on: MOLT4; experiment: Cancer cell panel, cell viability (resazurin): Leukemia, MOLT4; settings: 72 hours, labelled drug combined with Example 3

## CC[C@]1(O)C[C@@H]2CN(CCc3c([nH]c4ccccc34)[C@@](C(=O)OC)(c3cc4c(cc3OC)N(C)[C@H]3[C@@](O)(C(=O)OC)[C@H](OC(C)=O)[C@]5(CC)C=CCN6CC[C@]43[C@@H]65)C2)C1 [Vinblastine, vinblastine]
[1]
  synergy, additivity or antagonism of the combination of Example 3 with the anti-cancer drug: + (Additive relative to each agent alone (CI = 0.9-1 by Bliss Independence Model and <0.9 by Highest Single Agent Model))
[2]
  synergy, additivity or antagonism of the combination of Example 3 with the anti-cancer drug: + (Additive relative to each agent alone (CI = 0.9-1 by Bliss Independence Model and <0.9 by Highest Single Agent Model))
[3]
  synergy, additivity or antagonism of the combination of Example 3 with the anti-cancer drug: + (Additive relative to each agent alone (CI = 0.9-1 by Bliss Independence Model and <0.9 by Highest Single Agent Model))
[4]
  synergy, additivity or antagonism of the combination of Example 3 with the anti-cancer drug: + + + (Synergy relative to each agent alone (CI = 0.4-0.74 by Bliss Independence Model))
[5]
  synergy, additivity or antagonism of the combination of Example 3 with the anti-cancer drug: + (Additive relative to each agent alone (CI = 0.9-1 by Bliss Independence Model and <0.9 by Highest Single Agent Model))
[6]
  synergy, additivity or antagonism of the combination of Example 3 with the anti-cancer drug: + + + (Synergy relative to each agent alone (CI = 0.4-0.74 by Bliss Independence Model))
[7]
  synergy, additivity or antagonism of the combination of Example 3 with the anti-cancer drug: + (Additive relative to each agent alone (CI = 0.9-1 by Bliss Independence Model and <0.9 by Highest Single Agent Model))
[8]
  synergy, additivity or antagonism of the combination of Example 3 with the anti-cancer drug: + + + + (Strong synergy relative to each agent alone (CI < 0.4 by Bliss Independence Model))
[9]
  synergy, additivity or antagonism of the combination of Example 3 with the anti-cancer drug: + (Additive relative to each agent alone (CI = 0.9-1 by Bliss Independence Model and <0.9 by Highest Single Agent Model))
[10]
  synergy, additivity or antagonism of the combination of Example 3 with the anti-cancer drug: + + + (Synergy relative to each agent alone (CI = 0.4-0.74 by Bliss Independence Model))
[11]
  synergy, additivity or antagonism of the combination of Example 3 with the anti-cancer drug: + (Additive relative to each agent alone (CI = 0.9-1 by Bliss Independence Model and <0.9 by Highest Single Agent Model))
[12]
  synergy, additivity or antagonism of the combination of Example 3 with the anti-cancer drug: + (Additive relative to each agent alone (CI = 0.9-1 by Bliss Independence Model and <0.9 by Highest Single Agent Model))
[13]
  synergy, additivity or antagonism of the combination of Example 3 with the anti-cancer drug: + + (Slight synergy relative to each agent alone (CI = 0.75-0.9 by Bliss Independence Model))
[14]
  synergy, additivity or antagonism of the combination of Example 3 with the anti-cancer drug: + + (Slight synergy relative to each agent alone (CI = 0.75-0.9 by Bliss Independence Model))
[15]
  synergy, additivity or antagonism of the combination of Example 3 with the anti-cancer drug: + (Additive relative to each agent alone (CI = 0.9-1 by Bliss Independence Model and <0.9 by Highest Single Agent Model))
[16]
  synergy, additivity or antagonism of the combination of Example 3 with the anti-cancer drug: + (Additive relative to each agent alone (CI = 0.9-1 by Bliss Independence Model and <0.9 by Highest Single Agent Model))
[17]
  synergy, additivity or antagonism of the combination of Example 3 with the anti-cancer drug: + + + (Synergy relative to each agent alone (CI = 0.4-0.74 by Bliss Independence Model))
[18]
  synergy, additivity or antagonism of the combination of Example 3 with the anti-cancer drug: + (Additive relative to each agent alone (CI = 0.9-1 by Bliss Independence Model and <0.9 by Highest Single Agent Model))
[19]
  synergy, additivity or antagonism of the combination of Example 3 with the anti-cancer drug: + (Additive relative to each agent alone (CI = 0.9-1 by Bliss Independence Model and <0.9 by Highest Single Agent Model))
[20]
  synergy, additivity or antagonism of the combination of Example 3 with the anti-cancer drug: + (Additive relative to each agent alone (CI = 0.9-1 by Bliss Independence Model and <0.9 by Highest Single Agent Model))
[21]
  synergy, additivity or antagonism of the combination of Example 3 with the anti-cancer drug: + (Additive relative to each agent alone (CI = 0.9-1 by Bliss Independence Model and <0.9 by Highest Single Agent Model))
[22]
  synergy, additivity or antagonism of the combination of Example 3 with the anti-cancer drug: + (Additive relative to each agent alone (CI = 0.9-1 by Bliss Independence Model and <0.9 by Highest Single Agent Model))
[23]
  synergy, additivity or antagonism of the combination of Example 3 with the anti-cancer drug: + (Additive relative to each agent alone (CI = 0.9-1 by Bliss Independence Model and <0.9 by Highest Single Agent Model))
[24]
  synergy, additivity or antagonism of the combination of Example 3 with the anti-cancer drug: + (Additive relative to each agent alone (CI = 0.9-1 by Bliss Independence Model and <0.9 by Highest Single Agent Model))
[25]
  synergy, additivity or antagonism of the combination of Example 3 with the anti-cancer drug: + (Additive relative to each agent alone (CI = 0.9-1 by Bliss Independence Model and <0.9 by Highest Single Agent Model))
[26]
  synergy, additivity or antagonism of the combination of Example 3 with the anti-cancer drug: + (Additive relative to each agent alone (CI = 0.9-1 by Bliss Independence Model and <0.9 by Highest Single Agent Model))
[27]
  synergy, additivity or antagonism of the combination of Example 3 with the anti-cancer drug: + (Additive relative to each agent alone (CI = 0.9-1 by Bliss Independence Model and <0.9 by Highest Single Agent Model))
[28]
  synergy, additivity or antagonism of the combination of Example 3 with the anti-cancer drug: + (Additive relative to each agent alone (CI = 0.9-1 by Bliss Independence Model and <0.9 by Highest Single Agent Model))
[29]
  synergy, additivity or antagonism of the combination of Example 3 with the anti-cancer drug: + (Additive relative to each agent alone (CI = 0.9-1 by Bliss Independence Model and <0.9 by Highest Single Agent Model))
[30]
  synergy, additivity or antagonism of the combination of Example 3 with the anti-cancer drug: + + (Slight synergy relative to each agent alone (CI = 0.75-0.9 by Bliss Independence Model))
[31]
  synergy, additivity or antagonism of the combination of Example 3 with the anti-cancer drug: − (Slightly antagonistic relative to each agent alone (CI = 1.1-1.2 by Highest Single Agent Model))
